Measurements taken from patent US20110262552A1, “Compositions Comprising Plant Extracts and Use Thereof for Treating Inflammation” (priority 2008, published 2011).

What was measured:
[1] = tested on: carrageenan-induced paw edema; experiment: Carrageenin-induced acute inflammation (paw edema) in mice; type: in vivo, CD-1 mice; conditions: oral; for % inhibition (hind paw edema): 1 h before intra-plantar carrageenan, edema 4 h after, compositions 1-4 250 mg/kg total, Aspirin 150, Phenylbutazone 30, Celebrex 10, Naproxen 30 mg/kg; for anti-inflammatory activity in carrageenan-induced paw edema assay: doses as in Table V
Protocol: Male CD-1 (Crl.) derived mice weighing 22±1 g were obtained from BioLasco Taiwan (under Charles River Laboratories Technology Licensee). All animals were housed in a controlled temperature (22° C.-24° C.) and humidity (60%-80%) environment with 12 hours light/dark cycles for at least one week prior to experimental use. The animals had free access to standard lab chow for mice (MF-18 (Oriental Yeast Co., Ltd., Japan) and Reverse Osmosis water was granted. All aspects of the study including housing, experimentation and disposal of animals were performed in general accordance with the Guide for the Care and Use of Laboratory Animals (National Academy Press, Washington, D.C., 1996). Groups of 5 CD-1 male mice were fasted overnight prior to use. The test substances were administered orally one hour before intra-plantar injection of the right hind paw with carrageenan (50 μl of 1% suspension).

[2] = tested on: Complete Freund's Adjuvant-induced arthritis (hind paw volume); experiment: Adjuvant-induced arthritis in rats; type: in vivo, Lewis rats; conditions: reference drugs oral once daily for 5 days: Phenylbutazone 35, Celebrex 10, Dexamethasone 5 mg/kg
Protocol: The study was conducted in male Lewis rats obtained from Charles River Japan, Inc. The animals were housed in a controlled temperature (21° C.-24° C.) and humidity (54%-68%) environment with 12 hour light/dark cycles for at least 1 week prior to use. Rats had Laboratory Rodent Diet MF-18 (Oriental Yeast Co., Ltd., Japan) and water (reverse osmosis purified water) ad libitum. The entire study and animal conditions and manipulations were conducted in accordance with the Guide for the Care and Use of Laboratory Animals (National Academy Press, Washington, D.C., 1996).
Eight groups of 5 rats weighing approximately 210±10 g were used. […] A dosing volume of 10 ml/kg was used. A well-ground suspension of killed Mycobacterium tuberculosis (0.3 mg in 0.1 ml of light mineral oil (CFA) was administered in a single dose into the subplantar region of the right hind paw 1 hour following the first dose of the test and reference compositions.
Right hind paw volume was measured 4 hours after single CFA injection (denoted day 1), and on day 5 (acute phase), while the left hind paw (without CFA) volume was measured on day 14 and 18 (delayed phase). Hind paw volume was measured by plethysmometer and water cell (25 mm diameter).

[3] = tested on: knee pain associated with arthrosis
Excerpt: A 10 year old Husky with a history of bilateral rupture of the cruciate ligament had bilateral knee surgery to correct this problem. The animal was also known to have zinc deficiency.
The dog was prescribed metacam for knee pain associated with arthrosis.

| Compound | % inhibition (hind paw edema) [1] [%] | anti-inflammatory activity in carrageenan-induced paw edema assay [1] | % inhibition Day 14-0 [2] | % inhibition Day 18-0 [2] | % inhibition Day 18-14 [2] | pain control / pain relief (clinical examination) ([3]; 10 year old Husky, composition #8 1 gram per 10 kg body weight daily, a few weeks) | intolerance ([3]; dog, in vivo) |
| --- | --- | --- | --- | --- | --- | --- | --- |
| Cc1ccc(-c2cc(C(F)(F)F)nn2-c2ccc(S(N)(=O)=O)cc2)cc1 [Celebrex] | 23 | significant anti-inflammatory activity | 20% | 25% | 30% | – | – |
| CCCCC1C(=O)N(c2ccccc2)N(c2ccccc2)C1=O [Phenylbutazone] | 23 | – | 18, 18, 18% | 18, 18, 18% | 18, 18, 18% | – | – |
| Cc1cnc(NC(=O)C2=C(O)c3ccccc3S(=O)(=O)N2C)s1 [metacam] | – | – | – | – | – | only partially controlled | signs of intolerance |
| COc1ccc2cc([C@H](C)C(=O)O)ccc2c1 [Naproxen] | 36 | significant anti-inflammatory activity | – | – | – | – | – |
| CC(=O)Oc1ccccc1C(=O)O [Aspirin] | 36 | significant anti-inflammatory activity | – | – | – | – | – |
